Assay results taken from BigSolDB 2.1.

O=Cc1ccc2c(c1)OCO2
solubility (mole fraction)
Conditions	in acetone	in chloroform	in ethanol	in isopropanol	in water
273.15 K	0.0521	0.427	0.0056	0.0174	0.000118
278.15 K	0.0655	0.477	0.0143	0.0227	0.000153
283.15 K	0.0876	0.531	0.0396	0.0332	0.00022
288.15 K	0.118	0.598	0.0697	0.0461	0.000277
293.15 K	0.155	0.693	0.123	0.0753	0.000393
